From ChEMBL document CHEMBL1155437, “Anti-infective discorhabdins from a deep-water alaskan sponge of the genus Latrunculia” (J Nat Prod, 2010)
Converted amounts (≈) assume the structure as drawn. The source made the active and inactive calls. The calls are words filed in the database; no cut-off is given here.

How the values were obtained:
[1] = tested on: Staphylococcus aureus; test: Antibacterial activity against methicillin-resistant Staphylococcus aureus by modified NCCLS method; format: functional, organism-based
[2] = tested on: Vero; test: Cytotoxicity against african green monkey Vero cells by neutral red assay; format: cell-based; details: Chlorocebus sabaeus
[3] = tested on: Mycobacterium tuberculosis; test: Antituberculosis activity against Mycobacterium tuberculosis H37Rv after 4 days by alamar blue assay; format: functional, organism-based; details: 96 h
[4] = tested on: Plasmodium falciparum; test: Antimalarial activity against chloroquine-resistant Plasmodium falciparum W2 assessed as parasite LDH activity after 72 hrs by malstat reagent method; format: functional, organism-based; details: W2, 72 h
[5] = Cytotoxicity against human HuH7 cells at 10 uM after 5 days by RT-PCR; format: cell-based; details: huh-7, 120 h
[6] = tested on: Hepatitis C virus; test: Antiviral activity against HCV infected in human HuH7 clone B cells assessed as inhibition of viral RNA replication after 5 days by RT-PCR based replicon assay relative to control; format: functional, Hepacivirus hominis; details: Huh-7, 120 h
[7] = Selectivity index, ratio of IC50 for african green monkey (Cercopithecus aethiops) Vero cells to IC50 for chloroquine-sensitive Plasmodium falciparum D6; format: toxicity, cell-based; details: read-out: Ratio IC50
[8] = tested on: Plasmodium falciparum; test: Antimalarial activity against chloroquine-sensitive Plasmodium falciparum D6 assessed as parasite LDH activity after 72 hrs by malstat reagent method; format: functional, organism-based; details: D6, 72 h
[9] = Selectivity index, ratio of IC50 for african green monkey (Cercopithecus aethiops) Vero cells to IC50 for chloroquine-resistant Plasmodium falciparum W2; format: toxicity, cell-based; details: read-out: Ratio IC50
[10] = tested on: Mycobacterium intracellulare; test: Antibacterial activity against Mycobacterium intracellular by after 4 days alamar blue assay; format: functional, organism-based
[11] = tested on: Mus musculus; test: Toxicity in Plasmodium berghei infected mice (Mus musculus) assessed as mortality at 10 mg/kg, perorally or subcutaneously QD for 2 days measured on day 4; format: organism-based; design: dose 10 mg/kg, route oral; details: in vivo, po, 48 h
[12] = tested on: Mus musculus; test: Toxicity in Plasmodium berghei infected mice (Mus musculus) at 10 mg/kg, perorally or subcutaneously administered 2 hrs post infection; format: organism-based; design: dose 10 mg/kg, route oral; details: in vivo, po
[13] = tested on: Mus musculus; test: Toxicity in Plasmodium berghei infected mice (Mus musculus) assessed as loss of weight at 10 mg/kg, perorally or subcutaneously QD on day 1; format: organism-based; design: dose 10 mg/kg, route oral; details: in vivo, po
[14] = tested on: Mus musculus; test: Toxicity in Plasmodium berghei infected mice (Mus musculus) assessed as reduction of movements at 10 mg/kg, perorally or subcutaneously QD on day 1; format: organism-based; design: dose 10 mg/kg, route oral; details: in vivo, po
[15] = tested on: Mus musculus; test: Toxicity in Plasmodium berghei infected mice (Mus musculus) assessed as mortality at 10 mg/kg, perorally or subcutaneously QD for 2 days measured on day 3; format: organism-based; design: dose 10 mg/kg, route oral; details: in vivo, po, 48 h
[16] = tested on: Mus musculus; test: Toxicity in Plasmodium berghei infected mice (Mus musculus) assessed as dehydration at 10 mg/kg, perorally or subcutaneously QD on day 1; format: organism-based; design: dose 10 mg/kg, route oral; details: in vivo, po
[17] = tested on: Plasmodium berghei; test: Antimalarial activity against Plasmodium berghei infected in mice (Mus musculus) assessed as parasitaemia at 10 mg/kg, perorally or subcutaneously administered 2 hrs post infection daily for 2 days measured on day 5 by microscopy; format: functional; details: route oral
[18] = tested on: Mus musculus; test: Toxicity in Plasmodium berghei infected mice (Mus musculus) at 10 mg/kg, perorally or subcutaneously QD for 2 days measured on day 2; format: organism-based; design: dose 10 mg/kg, route oral; details: in vivo, po, 48 h
[19] = tested on: Mus musculus; test: Toxicity in Plasmodium berghei infected mice (Mus musculus) assessed as loss of weight at 10 mg/kg, perorally or subcutaneously QD for 2 days measured on day 5; format: organism-based; design: dose 10 mg/kg, route oral; details: in vivo, po, 48 h
[20] = tested on: Mus musculus; test: Toxicity in Plasmodium berghei infected mice (Mus musculus) at 10 mg/kg, perorally or subcutaneously QD for 2 days measured on day 5; format: organism-based; design: dose 10 mg/kg, route oral; details: in vivo, po, 48 h
[21] = Mycobacterium intracellulare, 96 h
[22] = Mycobacterium intracellulare, 96 h, read-out: IC50

| SMILES | IC50 [1] [µM] | MIC [1] [µM] | IC50 [2] [µM] | MIC [3] [µM] | IC50 [4] [nM] | Activity [5] | EC90 [6] [µM] | selectivity ratio [7] | IC50 [8] [nM] | selectivity ratio [9] | MIC [10, 21] [µM] | IC50 [10, 22] [nM] | Activity [12] | also measured |
| --- | --- | --- | --- | --- | --- | --- | --- | --- | --- | --- | --- | --- | --- | --- |
| O=C1C(Br)=CC2(C=C1Br)CCNC1=C2C2=NCCc3c[nH]c(c32)C1=O [DISCORHABDIN C] | 3.2 | 11 (≈ 5.09 µg/mL) | 2.8 | 8 (≈ 3.71 µg/mL) | 2000 | Active | < 10 | 1 | 2800 | 1.4 | 0.17 (≈ 0.0787 µg/mL) | 130 |  | IC50 [3]: 6.8 µM |
| NNC(=O)c1ccncc1 [ISONIAZID] |  |  |  | 3.2 (≈ 0.439 µg/mL) |  |  |  |  |  |  |  |  |  |  |
| O=C1C2=C(C3=NCCc4c[nH]c1c43)C1(C=C(Br)C(O)C(Br)=C1)CCN2 (configuration not stated) [DIHYDRODISCORHABDIN C] | 13 |  | 9.8 | 14 (≈ 6.51 µg/mL) | 130 | Active | < 10 | 58 | 170 | 75 |  |  | Non-toxic | Activity [11]: Toxic; Activity [13]: Toxic; Activity [14]: Toxic; IC50 [10]: Not Active; MIC [10]: inactive; Activity [15]: Toxic; Activity [16]: Toxic |
| O=C1C[C@H]2S[C@H]3C[C@]2(C=C1Br)C1=C(N3)C(=O)c2[nH]cc3c2C1=NCC3 [DISCORHABDINE A] | 4.8 | 12 (≈ 5 µg/mL) | 6.8 | 7.7 (≈ 3.21 µg/mL) | 53 | Active | < 10 | 130 | 53 | 130 | 0.74 (≈ 0.308 µg/mL) | 360 | Non-toxic | Activity [17]: 6.6%; Activity [18]: Toxic; Activity [19]: > 25%; Activity [20]: Toxic |
| O=C(O)c1cn(C2CC2)c2cc(N3CCNCC3)c(F)cc2c1=O [CIPROFLOXACIN] | 1.1 | 3 (≈ 0.994 µg/mL) |  |  |  |  |  |  |  |  | 1.5 (≈ 0.497 µg/mL) |  |  |  |
| CO[C@H]1/C=C/O[C@@]2(C)Oc3c(C)c(O)c4c(O)c(c(/C=N/N5CCN(C)CC5)c(O)c4c3C2=O)NC(=O)/C(C)=C\C=C\[C@H](C)[C@H](O)[C@@H](C)[C@@H](O)[C@@H](C)[C@H](OC(C)=O)[C@@H]1C [RIFAMPIN] |  |  |  | 0.21 (≈ 0.173 µg/mL) |  |  |  |  |  |  |  |  |  |  |
